System: σ1R
Assay: NHP PET/MR imaging with kinetic modelling, baseline and self-blocking
Format: in vivo
Conditions: for VT, Logan graphical method [T* = 40 min] / VT, Two tissue compartment model [2TCM] / VT, One tissue compartment model [1TCM]: male NHP brain
Text: Next, we conducted PET/MR imaging studies using [^11C]CNY‐01 in non‐human primates (NHP) to evaluate its safety and translational potential in large animals further. A 90‐minute dynamic PET scan with [^11C]CNY‐01 focusing on the head of a male rhesus monkey. We performed a full kinetic analysis with one‐ and two‐tissue compartment models (1TCM and 2TCM), as well as logan graphical analysis (LGA), using metabolite‐corrected arterial input function (AIF), similar to previous studies,^[ [44], [45] ^] to determine which model best suit kinetics of [^11C]CNY‐01. In most brain regions, 2TCM provided a better fit than 1TCM, as indicated by the Akaike information criterion (AIC) and model selection criterion (MSC) (Table 1). […] To test whether non‐parametric graphical approaches can be used for [^11C]CNY‐01, we performed LGA with an assumption of steady‐state time (T*) of 40 mins (Table 1). […] For voxel‐wise estimation of VT across the whole brain, we then used LGA (Figure 4A).
We also performed a self‐blocking scan for [^11C]CNY‐01, administering 0.5 mg kg^−1 of unlabeled CNY‐01 10 min before the radiotracer. The metabolism of the radiotracer in the blocking scan was similar to that of the baseline (Figure S6, Supporting Information). The radioactivity concentration was lower in arterial blood samples in the blocking scan compared to the baseline, while brain uptake was higher in the blocking scan (Figure S6, Supporting Information). […] The variation of the radiotracer plasma protein binding (fp) between baseline and blocking scan may explain our observation in a way similar to that of the previous study.^[ [46] ^] Nonetheless, due to this study's lack of fp data, the exact explanation for our observation remains to be determined further.
The PET/MR imaging protocol in non‐human primates (NHP) followed our previous work.^[ [55], [56] ^] A male rhesus macaque (8.55 kg) was anesthetized with an intramuscular injection of xylazine (0.5–2.0 mg kg^−1) and ketamine (10 mg kg^−1), followed by endotracheal intubation. V‐ and A‐lines were inserted, and anesthesia was maintained using isoflurane. [^11C] CNY‐01 was administered after antecubital catheterization, with an arterial line prepared for radiometabolite analysis. In the self‐blocking scan, the same animal (6.80 kg) was scanned with a 10‐min pre‐treatment of 0.5 mg kg^−1 unlabeled CNY‐01. PET/MR imaging data were acquired using a Siemens TIM‐Trio scanner (3T) equipped with a Siemens BrainPET insert module and an in‐house‐built 8‐channel head coil. The dynamic scan began, followed by administration of [^11C] CNY‐01 (5.1 mCi). The list mode data were reconstructed using the 3D ordinary Poisson expectation‐maximization algorithm (16 subsets and 6 iterations) with detector efficiency, decay, dead time, random coincidences, scatter, and attenuation corrections with gradually increasing time frams. All images were reconstructed into 153 slices with 256 × 256 pixels and 1.25‐mm isotropic voxel size. High‐resolution structural MRI scans were acquired by using a multi‐echo magnetization‐prepared rapid gradient echo (ME‐MPRAGE) sequence with parameters as follows: TR = 2400 ms; TE1/TE2/TE3/TE4 = 1.57/3.29/5.01/6.73 ms; inversion time = 1200 ms; flip angle = 9°; spatial resolution = 1 mm isotropic.
For macaque brain PET/MR imaging analysis, we applied the INIA19 Template^[ [57] ^] and NeuroMaps Atlas in accordance with our prior work.^[ [58] ^] In brief, reconstructed PET images were registered to the INIA19 Primate Brain Atlas^[ [57] ^] with the following processing steps^[ [59] ^]: The high‐resolution T1‐weighted MR image, co‐registered with the PET image, was first affine‐registered to the INIA19 atlas. By using the same transformation, dynamic PET data was registered to the atlas. A spatial smoothing with a 6‐mm FWHM Gaussian kernel was applied to PET images. Twenty ROIs determined in the INIA19 atlas were used to derive regional TACs. […]

[1] = ACC, 10-min pretreatment of unlabeled CNY-01 (0.5 mg kg^−1)
[2] = Amygdala, 10-min pretreatment of unlabeled CNY-01 (0.5 mg kg^−1)
[3] = CBL, 10-min pretreatment of unlabeled CNY-01 (0.5 mg kg^−1)
[4] = Caudate, 10-min pretreatment of unlabeled CNY-01 (0.5 mg kg^−1)
[5] = Globus-pallidus, 10-min pretreatment of unlabeled CNY-01 (0.5 mg kg^−1)
[6] = Hippocampus, 10-min pretreatment of unlabeled CNY-01 (0.5 mg kg^−1)
[7] = Hypothalamus, 10-min pretreatment of unlabeled CNY-01 (0.5 mg kg^−1)
[8] = Ifc, 10-min pretreatment of unlabeled CNY-01 (0.5 mg kg^−1)
[9] = Insula, 10-min pretreatment of unlabeled CNY-01 (0.5 mg kg^−1)
[10] = Midbrain, 10-min pretreatment of unlabeled CNY-01 (0.5 mg kg^−1)
[11] = Motor, 10-min pretreatment of unlabeled CNY-01 (0.5 mg kg^−1)

Cc1nc(-c2ccc(O[11CH3])cc2)nc(OCCCN2CCCCC2)c1Cl [[^11C]CNY-01]
VT in blocking scan compared to baseline (0.5 mg kg^−1 unlabeled CNY-01 10 min before the radiotracer, NHP): higher VT across the brain | VT, Logan graphical method [T* = 40 min] [1]: 29.37 ml/cm^3 | VT, Two tissue compartment model [2TCM] [1]: 25.84 ml/cm^3 | VT, Logan graphical method [T* = 40 min] (ACC, baseline): 13.32 mL cm^−3 | VT, One tissue compartment model [1TCM] (ACC, baseline): 9.76 mL cm^−3 | VT, Two tissue compartment model [2TCM] (ACC, baseline): 15.87 mL cm^−3 | VT, Logan graphical method [T* = 40 min] [2]: 34.47 ml/cm^3 | VT, Two tissue compartment model [2TCM] [2]: 29.18 ml/cm^3 | VT, Logan graphical method [T* = 40 min] (Amygdala, baseline): 14.75 mL cm^−3 | VT, One tissue compartment model [1TCM] (Amygdala, baseline): 10.83 mL cm^−3 | VT, Two tissue compartment model [2TCM] (Amygdala, baseline): 13.78 mL cm^−3 | VT, Logan graphical method [T* = 40 min] [3]: 21.96 ml/cm^3 | VT, Two tissue compartment model [2TCM] [3]: 18.25 ml/cm^3 | VT, Logan graphical method [T* = 40 min] (CBL, baseline): 11.65 mL cm^−3 | VT, One tissue compartment model [1TCM] (CBL, baseline): 8.96 mL cm^−3 | VT, Two tissue compartment model [2TCM] (CBL, baseline): 11.68 mL cm^−3 | VT, Logan graphical method [T* = 40 min] [4]: 28.10 ml/cm^3 | VT, Two tissue compartment model [2TCM] [4]: 24.46 ml/cm^3 | VT, Logan graphical method [T* = 40 min] (Caudate, baseline): 12.71 mL cm^−3 | VT, One tissue compartment model [1TCM] (Caudate, baseline): 9.58 mL cm^−3 | VT, Two tissue compartment model [2TCM] (Caudate, baseline): 14.24 mL cm^−3 | VT, Logan graphical method [T* = 40 min] [5]: 33.31 ml/cm^3 | VT, Two tissue compartment model [2TCM] [5]: 26.67 ml/cm^3 | VT, Logan graphical method [T* = 40 min] (Globus-pallidus, baseline): 15.11 mL cm^−3 | VT, One tissue compartment model [1TCM] (Globus-pallidus, baseline): 11.32 mL cm^−3 | VT, Two tissue compartment model [2TCM] (Globus-pallidus, baseline): 14.90 mL cm^−3 | VT, Logan graphical method [T* = 40 min] [6]: 24.15 ml/cm^3 | VT, Two tissue compartment model [2TCM] [6]: 18.46 ml/cm^3 | VT, Logan graphical method [T* = 40 min] (Hippocampus, baseline): 10.31 mL cm^−3 | VT, One tissue compartment model [1TCM] (Hippocampus, baseline): 8.04 mL cm^−3 | VT, Two tissue compartment model [2TCM] (Hippocampus, baseline): 10.36 mL cm^−3 | VT, Logan graphical method [T* = 40 min] [7]: 24.54 ml/cm^3 | VT, Two tissue compartment model [2TCM] [7]: 18.97 ml/cm^3 | VT, Logan graphical method [T* = 40 min] (Hypothalamus, baseline): 11.42 mL cm^−3 | VT, One tissue compartment model [1TCM] (Hypothalamus, baseline): 8.36 mL cm^−3 | VT, Two tissue compartment model [2TCM] (Hypothalamus, baseline): 10.60 mL cm^−3 | VT, Logan graphical method [T* = 40 min] [8]: 20.73 ml/cm^3 | VT, Two tissue compartment model [2TCM] [8]: 18.09 ml/cm^3 | VT, Logan graphical method [T* = 40 min] (Ifc, baseline): 9.62 mL cm^−3 | VT, One tissue compartment model [1TCM] (Ifc, baseline): 7.36 mL cm^−3 | VT, Two tissue compartment model [2TCM] (Ifc, baseline): 10.89 mL cm^−3 | VT, Logan graphical method [T* = 40 min] [9]: 31.86 ml/cm^3 | VT, Two tissue compartment model [2TCM] [9]: 26.77 ml/cm^3 | VT, Logan graphical method [T* = 40 min] (Insula, baseline): 14.70 mL cm^−3 | VT, One tissue compartment model [1TCM] (Insula, baseline): 11.17 mL cm^−3 | VT, Two tissue compartment model [2TCM] (Insula, baseline): 13.96 mL cm^−3 | VT, Logan graphical method [T* = 40 min] [10]: 34.11 ml/cm^3 | VT, Two tissue compartment model [2TCM] [10]: 25.70 ml/cm^3 | VT, Logan graphical method [T* = 40 min] (Midbrain, baseline): 13.39 mL cm^−3 | VT, One tissue compartment model [1TCM] (Midbrain, baseline): 11.03 mL cm^−3 | VT, Two tissue compartment model [2TCM] (Midbrain, baseline): 14.71 mL cm^−3 | VT, Logan graphical method [T* = 40 min] [11]: 21.53 ml/cm^3 | VT, Two tissue compartment model [2TCM] [11]: 16.66 ml/cm^3 | VT, Logan graphical method [T* = 40 min] (Motor, baseline): 9.39 mL cm^−3
